Measurements published in article PMC8121805, “Discovery of first-in-class inhibitors of ASH1L histone methyltransferase with anti-leukemic activity” (Nature Communications, 2021).
“Also recorded” adds a separate entry of the source.

Experiments:
ASH1L SET domain = target: T1, ASH1L SET domain (Homo sapiens, UniProt Q9NR48); test: NMR titration (1H-15N TROSY-HSQC); type: binding; details: linear chemical shift perturbations up to 1 mM
T1 construct: ASH1L SET domain (amino acids 2069–2288) was expressed and purified; Mocr (N, cleaved yes); made in house; host or cells: E. coli BL21(DE3)

ASH1L S2259M = target: T2, ASH1L S2259M (Homo sapiens, UniProt Q9NR48, S2264M); test: NMR binding to S2259M mutant; details: NMR chemical shift perturbations
T2 construct: ASH1L SET domain (2069–2288) in the buffer; made in house
Description: For fragment screening, we used an in-house library of 1600 fragment-like compounds with the following properties: average Mw = 183 Da (range of 84–345 Da), mean clogP = 1.5 (from −2.5 to 3.7), hydrogen bond acceptors: from 0 to 6 (median = 3), hydrogen bond donors: 0 to 3 (median = 1).
Supplementary Figure 2. Binding of ASH1L inhibitors. (a) Superposition of the H- N TROSY-HSQC spectra of 100 µM ASH1L SET with 5% DMSO (black) or with 1 mM of compound 1 (red). Most perturbed residues are marked in boxes. (b) Superposition of the crystal structure of ASH1L SET domain (4YNM in PDB) and S2259M mutant of ASH1L (4YNP in PDB). (c) Superposition of the 1H-15N TROSY-HSQC spectra of 100 µM ASH1L S2259M mutant

- Kd (ASH1L SET domain): > 1000 µM
Compound: NC(=S)c1cccc(-n2cccc2)c1 [compound 1]
- binding to ASH1L S2259M mutant (ASH1L S2259M): no binding; also recorded: not bind to the S2259M mutant
